Common to all, as to format: functional
Experiment [1] has as its system LNCaP. The experiment can be described thus: Cytotoxicity against human LNCAP cells by MTT assay. For orientation: Tetrazolium assays rely on reduction of a dye to a coloured formazan, in cell work by metabolically active cells.
The nature of experiment [2]: Cytotoxicity against human IGROV-ET cells by MTT assay.
Experiment [3] deals with PANC-1. The experiment can be described thus: Cytotoxicity against human PANC1 cells by MTT assay.
Experiment [4] relates to LoVo. The experiment can be described thus: Cytotoxicity against human LoVo cells by MTT assay.
The nature of experiment [5]: (§1) Cytotoxicity against human NSCLC-N6-L16 cells by MTT assay.
Experiment [6] is filed under the species Homo sapiens. The experiment is described as §1.

≈ marks a conversion by molar mass, not a printed value. Calls of active or inactive are those of the source. The rule behind the calls is not given here.

Consider `CC(C)CC1OC1[C@@H](C)[C@@]1(O)CC[C@H]2[C@@H]3CC=C4C[C@@H](O)CC[C@]4(C)[C@H]3CC[C@@]21C` (stereo not given in full), for which the concentration for 50% growth inhibition (GI50) stood at 3.09 µg/mL (≈ 7.42 µM) in experiment [1]; 1.24 µg/mL (≈ 2.98 µM) in experiment [2]; 2.17 µg/mL (≈ 5.21 µM) in experiment [3]; 6.23 µg/mL (≈ 15 µM) in experiment [4]; 2 µg/mL (≈ 4.8 µM) in experiment [5].

For `CC1=C(CCC(C)C)OC[C@]23CC[C@H]4[C@@H](CC=C5C[C@@H](O)CC[C@@]54C)[C@@H]2CC[C@H]13`, the 50% growth inhibitory concentration (GI50) was determined as 3.52 µg/mL (≈ 8.83 µM) in experiment [1], 7.95 µg/mL (≈ 19.9 µM) in experiment [2], 8.92 µg/mL (≈ 22.4 µM) in experiment [3] and 6.91 µg/mL (≈ 17.3 µM) in experiment [4]. Moreover, the result in experiment [6] was inactive.

In the case of `CC(C)C(C)C1OC1[C@@H](C)[C@@]1(O)CC[C@H]2[C@@H]3CC=C4C[C@@H](O)CC[C@]4(C)[C@H]3CC[C@@]21C` (stereo not given in full), the GI50 amounted to 6.42 µg/mL (≈ 14.9 µM) in experiment [1]; 1.68 µg/mL (≈ 3.9 µM) in experiment [2]; 2.74 µg/mL (≈ 6.36 µM) in experiment [3]; 4.02 µg/mL (≈ 9.33 µM) in experiment [4]; 0.6 µg/mL (≈ 1.39 µM) in experiment [5].

`CC1=C(CCC(C)C)OC[C@]23CC[C@H]4[C@@H](CC[C@H]5C[C@@H](O)CC[C@@]54C)[C@@H]2CC[C@H]13`: the GI50 was determined as 2.88 µg/mL (≈ 7.19 µM) in experiment [1], 6.66 µg/mL (≈ 16.6 µM) in experiment [2] and 8.29 µg/mL (≈ 20.7 µM) in experiment [4]. Moreover, the result in experiment [3] and in experiment [6] was inactive.

What is called GI50 is the concentration that inhibits growth by half. A lower GI50 goes with greater sensitivity of the cells.

For the origin of these results see ChEMBL document CHEMBL1151157, “New cytotoxic steroids from the Indian Ocean sponge Axinella cf. bidderi” (2004).
